In PubChem BioAssay (NCI):
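Cells were grown in 96-well plates and exposed to each compound for 48 hours at five concentrations; endpoints were interpolated linearly between bracketing concentrations, or set to the highest concentration if not reached. GI50: concentration for 50% inhibition of growth. Definition used: TGI = concentration required for complete inhibition of growth.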

Columns and labels:
Test in all cases: growth of human tumour cells (NCI), 48 h
[1] = test system: IGROV1 ovarian
[2] = test system: KM12 colon
[3] = test system: OVCAR-5 ovarian
[4] = test system: CCRF-CEM leukemia
[5] = test system: A549 NSCLC
[6] = test system: HCC-2998 colon
[7] = test system: SF-295 CNS
[8] = test system: SK-OV-3 ovarian
[9] = test system: SN12C renal
[10] = test system: MOLT-4 leukemia

Row | Compound | TGI [1] | TGI [2] | TGI [3] | TGI [4] | TGI [5] | TGI [6] | TGI [7] | TGI [8] | TGI [9] | TGI [10] | GI50 [1] | GI50 [2] | GI50 [3] | GI50 [4] | GI50 [5] | GI50 [6] | GI50 [7] | GI50 [8] | GI50 [9] | GI50 [10]
1 | Clc1ccc(SCCCCCCCCCCSc2ccc(Cl)cc2)cc1 | > 100 µM | > 70.4 µM | > 78.3 µM | > 100 µM | > 100 µM | > 64.6 µM | > 71.4 µM | > 100 µM | > 100 µM | > 100 µM |  |  |  |  |  |  |  |  |  | 
2 | COc1cc(-c2oc3c(OC)c(O)c(OC)c(O)c3c(=O)c2OC)ccc1O | 65.9 µM | > 100 µM | > 100 µM | > 100 µM | > 100 µM | > 100 µM | > 100 µM | 54.6 µM | > 100 µM | > 100 µM |  |  |  |  |  |  |  |  |  | 
3 | Cc1nn(-c2nc3ccccc3[nH]2)c2c1C(c1ccc3c(c1)OCO3)CC(=O)N2 (stereo not given) | 4.57 µM | 5.45 µM | > 100 µM | > 24.7 µM | 7.73 µM | > 24.3 µM | 4.38 µM | 5.77 µM | 9.77 µM | 0.214 µM | 2.36 µM | 2.33 µM | 5.43 µM | 1.94 µM | 2.56 µM | 3.7 µM | 1.81 µM | 2.63 µM | 2.77 µM | 0.0422 µM
4 | Oc1c(N=Nc2ccccc2)c2ccccc2c2ccc3ccccc3c12 | > 100 µM | > 100 µM | > 100 µM | > 100 µM | > 100 µM | > 100 µM | > 100 µM | > 100 µM | > 100 µM | > 100 µM |  |  |  |  |  |  |  |  |  | 
5 | C=CC(=O)Nc1cccc(C)c1Nc1ncc2cc(-c3c(Cl)c(OC)cc(OC)c3Cl)ccc2n1 | 26 µM | 24.8 µM | > 100 µM | > 100 µM | 97.4 µM | 31.9 µM | > 100 µM | 82.6 µM | > 100 µM | 7.61 µM | 8.18 µM | 4.11 µM | 17.9 µM | 4.44 µM | 7.27 µM | 12.4 µM | 3.26 µM | 18.3 µM | 5.87 µM | 1.76 µM
6 | CC1(C)C2C/C(=C\c3ccccc3)C(=O)C1C2 (stereo not given) | > 100 µM | > 100 µM | > 100 µM | > 100 µM | > 100 µM | > 100 µM | > 100 µM | > 100 µM | > 100 µM | > 100 µM |  |  |  |  |  |  |  |  |  | 
7 | COc1ccc2c(c1)CC1c3c(cc4c(c3-2)OCO4)CCN1C (stereo not given) | 85.8 µM | > 100 µM | > 100 µM | > 100 µM | 61 µM | > 100 µM | 50 µM | 69.1 µM | > 100 µM | 64.9 µM |  |  |  |  |  |  |  |  |  | 
8 | C=CCN=C1NC(=O)C(CC(=O)Nc2ccc(C)cc2)S1 (stereo not given) | > 100 µM | > 100 µM | > 100 µM | > 100 µM | > 100 µM | > 100 µM | > 100 µM | > 100 µM | > 100 µM | > 100 µM |  |  |  |  |  |  |  |  |  | 
9 | CC12CC3CC(C1)CC(N=[N+]=[N-])(C3)C2 | > 100 µM | > 100 µM | > 100 µM | > 100 µM | > 100 µM | > 100 µM | > 100 µM | > 100 µM | > 100 µM | > 100 µM |  |  |  |  |  |  |  |  |  | 
10 | OC(CNc1ccnc2cc(Cl)ccc12)CNC1CCCCC1 (stereo not given) | 24.4 µM | 27.3 µM | 38.4 µM | 42.4 µM | 21.7 µM | 11 µM | 4.9 µM | 32.8 µM | 48.4 µM | 31.9 µM | 10.1 µM | 13 µM | 12.6 µM | 7.29 µM | 8.12 µM | 3.79 µM | 2.13 µM | 10.5 µM | 12 µM | 9.15 µM
11 | CC(=O)c1c[nH]cc1CO | > 10 µM | > 10 µM | > 10 µM | > 10 µM | > 10 µM | > 10 µM | > 10 µM | > 10 µM | > 10 µM | > 10 µM |  |  |  |  |  |  |  |  |  | 
12 | NC(CCSC(F)F)C(=O)O (stereo not given) | > 100 µM | > 100 µM | > 100 µM | > 100 µM | > 100 µM | > 100 µM | > 100 µM | > 100 µM | > 100 µM | > 100 µM |  |  |  |  |  |  |  |  |  | 
13 | CCOC1C=CCCO1 (stereo not given) | > 100 µM | > 100 µM | > 100 µM | > 100 µM | > 100 µM | 9.11 µM | > 100 µM | > 100 µM | > 100 µM | > 100 µM |  |  |  |  |  |  |  |  |  | 
14 | OC(CNC1CCCC1)Cn1c2ccccc2c2ccccc21 (stereo not given) | > 100 µM | > 100 µM | > 100 µM | > 100 µM | > 100 µM | > 100 µM | 73.5 µM | 43.4 µM | > 100 µM | > 100 µM | 72.9 µM | > 100 µM | 35.9 µM | > 100 µM | > 100 µM | > 100 µM | 23.7 µM | 20.4 µM | 44.2 µM | > 100 µM
15 | N#CC1=C(N)Oc2c(sc3c(F)cccc23)C1c1ccc(F)cc1 (stereo not given) | 14.7 µM | 12.8 µM | 14.6 µM | 25.3 µM | 19.1 µM | 8.58 µM | 6.28 µM | 19.7 µM | 15.8 µM | 13.3 µM | 0.621 µM | 0.465 µM | 2.95 µM | 0.47 µM | 1.05 µM | 1.62 µM | 0.364 µM | 1.61 µM | 1.28 µM | 0.521 µM
16 | C=C1CC[C@@H]2[C@](C)(COC(C)=O)[C@H](OC(C)=O)CC[C@@]2(C)[C@@H]1C/C=C1/C(=O)OC[C@H]1OC(C)=O | 6.23 µM | 27.7 µM | 3.92 µM | 5.32 µM | 30.7 µM | 27.3 µM | 26.8 µM | 36.3 µM | 13.3 µM | 16.1 µM | 2.41 µM | 10.5 µM | 1.93 µM | 1.12 µM | 11.9 µM | 12.2 µM | 13.3 µM | 19.1 µM | 3.07 µM | 3.8 µM
17 | N#CN1CCC=C(c2cc3ccccc3[nH]2)C1 | > 448 µM | > 448 µM | > 448 µM | > 448 µM | > 448 µM | > 448 µM | > 448 µM | > 448 µM | > 448 µM | > 448 µM |  |  |  |  |  |  |  |  |  | 
